Measurements published in patent US20170168056A1, “METHODS AND COMPOSITIONS FOR DETECTING AND MODULATING CANCER CELLS” (Massachusetts Institute of Technology, priority 2015, published 2017).

What was measured:
MDA-MB-231 cells = experiment: Cell viability assay (Prestoblue) in MDA-MB-231 cells expressing GFP, GFP-Mena or GFP-Mena^INV; settings: 72 h of treatment with Taxol at 100 nM, 1 μm or 10 μM
Method: Cell viability assays were performed in a 96-well plate. 5,000 cells were plated per well and treated with drug 24 hours later. Cell viability was assayed 72 hours later using the PrestoBlue Cell Viability Reagent (Life Technologies), according to manufacturer's protocol. Fluorescence was measured and normalized to cells exposed to vehicle. The activity area was calculated from doseresponse plots using Matlab. All measurements were repeated in triplicate.

Mena, Mena^INV = experiment: Mena and Mena^INV immunofluorescence in Control tumors from treated mice; assay type: in vivo, mouse; settings: tissue sections of Control tumors from treated mice
Method: Taxol treatment induces increased Mena protein expression in vitro and in vivo. As high level of Mena or Mena^INV expression correlated with low response to Taxo, we hypothesized that Taxol treatment might affect Mena expression. […]. After 72 h of treatment with the drug, the expression level of Mena was 70% higher than in vehicle-treated cells.
Immunohistochemistry for Examples 16-22. Tumors dissected from NOD/SCID mice were fixed in 10% buffered formalin and embedded in paraffin. Tissue sections (5 μm thick) were deparaffinized followed by antigen retrieval using Citra Plus solution (Biogenex). After treatment with 3% H2O2, sections were blocked with serum, incubated with primary antibodies overnight at 4° C. and fluorescently labeled secondary antibodies at room temperature for 2 hours. Sections were stained using anti-MENA (1:500), biotinylated anti-MENA^INV (1:500), anti-CC3 (1:200), anti-Ki67 (1:200) and DAPI. Fluorochromes on secondary antibodies included AlexaFluor 488, 594 or 647 (Jackson Immunoresearch). Sections were mounted in Fluoromount mounting media and imaged at room temperature. […]
Paclitaxel treatment selects for high MENA expression in vitro and in vivo. […] First, endogenous MENA expression by Western Blot in 5 breast cancer cell lines that were exposed to 100 nM of paclitaxel or a vehicle control were analyzed (FIG. 33A).

[1] = tested on: human breast cancer cell lines; experiment: Cell viability (Taxol/paclitaxel efficacy) across a panel of breast cancer cell lines versus endogenous Mena expression; assay type: cell-based; settings: 9 breast cancer cell lines, 72 h treatment
Excerpt: Endogenous levels of Mena in breast cancer cell lines correlate with their resistance to Taxol treatment. Initial experiments relied on ectopic expression in a single cell line, we examined a panel breast cancer cell lines with differing levels of endogenous Mena expression for sensitivity to Taxol. […] Essentially, low endogenous Mena correlates with low resistance/reduced viability in Taxol treated cells, while high endogenous Mena correlates with high resistance/viability in Taxol treated cells (FIG. 1F).
Cell viability assay. […] All measurements were repeated in triplicate.
MENA and MENA^INV are associated with increased survival during paclitaxel treatment in vitro. Whether endogenous MENA and MENA^INV expression levels were associated with paclitaxel resistance was examined. MENA and MENA^INV were determined to be widely expressed in all main breast cancer subtypes, as measured by mRNA from TCGA samples, as well as at the protein level by immunohistochemistry (FIGS. 28A, 28B, 28C), with slightly higher expression in patients with Her2+ breast cancer. […] Under the conditions we used, MENA11a co-migrates with the 80 kDa MENA, thus the intensity of the measured the 80 kDa MENA, detected with an antibody known to recognize all MENA isoforms, represents the total amount of 80 kDa MENA plus MENA11a in the cell lines that express both isoforms. […]

microtubules (MT) = experiment: Immunofluorescence ratio of Glu-MT (stable) to Tyr-MT (dynamic); assay type: cell-based, human
Method: Immunofluorescence. Glass bottom dishes (Mattek) were coated with Collagen at 0.1 mg/mL diluted in PBS and 50 μg/mL FN for 1 hour at 37° C. Cells were plated for 1 hour, and then treated with paclitaxel alone or in combination with MEKi for 24 hours. Cells were fixed for 20 minutes in 4% paraformaldehyde in PHEM buffer with 0.1% Gluteraldehyde, and then quenched with sodium borohydrate for 5 minutes. Cells were blocked with 2% BSA in TBS-0.1%TritonX-100 for 30 minutes, and incubated with primary antibodies and then secondary antibodies for 1 hour each, at room temperature. Z series of images were taken on an Applied Precision DeltaVision microscope using Softworx acquisition, an Olympus 60×1.4 NA plan apo objective and a Photometrics CoolSNAP HQ camera. Images were deconvolved using Deltavision Softworx software and objective specific point spread function. Images were analyzed with ImageJ, where the whole cell intensity levels of Tyr- or Glu-MT was measured. Images are pooled from at least 3 independent experiments.
Paclitaxel promotes cell death by increasing the stability of MTs, and pathways driving increased MT dynamics are known to promote resistance to taxanes. Therefore, MT structure and dynamics in MENA isoform expressing cells was examined during paclitaxel treatment. […] Post-translational modification of MTs can regulate their dynamics, and antibodies that detect such modifications can be used to infer the relative dynamics of MT populations; in particular, MT tyrosination indicates a dynamic MT state, while de-tyrosination of MTs is associated with increased stability. The relative abundance of stable (Glu-MT) vs. dynamic (Tyr-MT) MTs was measured in individual cells by immunofluorescence with anti-Glu-MT and anti-Tyr-MT antibodies (FIGS. 37A, 37B).
The MAPK signaling cascade is among the key pathways known to interact with MTs. Both ERK1/2 interact with MTs; MT stabilization by paclitaxel increases ERK phosphorylation and, in turn, ERK pathway activation increases MT dynamics.

SMILES: CC(=O)O[C@H]1C(=O)[C@@]2(C)[C@H]([C@H](OC(=O)c3ccccc3)[C@]3(O)C[C@H](OC(=O)[C@H](O)[C@@H](NC(=O)c4ccccc4)c4ccccc4)C(C)=C1C3(C)C)[C@]1(OC(C)=O)CO[C@@H]1C[C@@H]2O [paclitaxel]
- fraction of viable GFP-Mena or GFP-Mena^INV cells higher than fraction of viable GFP (Control) cells (MDA-MB-231 cells): at least 65%
- Mena and Mena^INV levels in Control tumors compared to vehicle (Mena, Mena^INV): significant increases in total MENA levels
- Mena and Mena^INV levels in Control tumors compared to vehicle (Mena, Mena^INV; listed as Taxol): increase in expression of both global Mena levels and the Mena^INV isoform
- correlation between drug efficacy (cell survival) and endogenous Mena expression [1]: significant inverse correlation
- correlation between drug efficacy (cell survival) and endogenous Mena expression ([1]; listed as Taxol): highly significant anti-correlation
- relative ratio of stable (Glu-MT) to dynamic (Tyr-MT) MTs (microtubules (MT); 231-Control cells, 10 nM paclitaxel 24 hours): significant increase
- relative levels of stable to dynamic MTs (microtubules (MT); 231-MENA and 231-MENA^INV cells, 10 nM paclitaxel 24 hours): no change
- stable MTs relative to dynamic MTs, either drug alone (microtubules (MT); 231-MENA^INV cells, single drug, 24 hours): had no effect
